# Measured values taken from ChEMBL document CHEMBL1201862, “PubChem BioAssay data set” (2004).
# Activity calls are given as the source filed them. Cut-off read from the data, not from the text of the source, for most assays here: actives have a measured IC50 and inactives only a lower limit.
# Target: T1, Caspase-3 (Homo sapiens, UniProt P42574);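 note: Dose-response selectivity test against caspase-3 for candidate inhibitors of sentrin-specific proteases (SENPs)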
# T1 sequence (P42574 whole entry): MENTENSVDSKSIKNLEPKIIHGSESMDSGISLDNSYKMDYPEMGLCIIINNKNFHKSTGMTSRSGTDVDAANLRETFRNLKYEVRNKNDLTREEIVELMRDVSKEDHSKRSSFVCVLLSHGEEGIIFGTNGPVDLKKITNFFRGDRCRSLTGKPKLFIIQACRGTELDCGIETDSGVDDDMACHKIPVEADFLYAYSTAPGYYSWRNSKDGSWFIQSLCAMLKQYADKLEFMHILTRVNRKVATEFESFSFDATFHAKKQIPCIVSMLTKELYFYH
# Format: functional
row,Structure (SMILES),IC50
1,O=C1N=C(NS(=O)(=O)Cc2ccccc2)S/C1=C1\C(=O)Nc2ccccc21,67.2 µM (active)
2,Clc1ccc2nc(-c3ccc(Br)s3)cn2c1,11.2 µM (active)
3,Oc1ccc(N=Nc2c(O)ccc3ccccc23)cc1,49.7 µM (active)

# Target: T2, Sentrin-specific protease 6 (Homo sapiens, UniProt Q9GZR1);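 note: Luminescence-based dose-response confirmatory assay of SENP6 inhibition, following up an ultra-high-throughput screen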
# T2 sequence (Q9GZR1 whole entry): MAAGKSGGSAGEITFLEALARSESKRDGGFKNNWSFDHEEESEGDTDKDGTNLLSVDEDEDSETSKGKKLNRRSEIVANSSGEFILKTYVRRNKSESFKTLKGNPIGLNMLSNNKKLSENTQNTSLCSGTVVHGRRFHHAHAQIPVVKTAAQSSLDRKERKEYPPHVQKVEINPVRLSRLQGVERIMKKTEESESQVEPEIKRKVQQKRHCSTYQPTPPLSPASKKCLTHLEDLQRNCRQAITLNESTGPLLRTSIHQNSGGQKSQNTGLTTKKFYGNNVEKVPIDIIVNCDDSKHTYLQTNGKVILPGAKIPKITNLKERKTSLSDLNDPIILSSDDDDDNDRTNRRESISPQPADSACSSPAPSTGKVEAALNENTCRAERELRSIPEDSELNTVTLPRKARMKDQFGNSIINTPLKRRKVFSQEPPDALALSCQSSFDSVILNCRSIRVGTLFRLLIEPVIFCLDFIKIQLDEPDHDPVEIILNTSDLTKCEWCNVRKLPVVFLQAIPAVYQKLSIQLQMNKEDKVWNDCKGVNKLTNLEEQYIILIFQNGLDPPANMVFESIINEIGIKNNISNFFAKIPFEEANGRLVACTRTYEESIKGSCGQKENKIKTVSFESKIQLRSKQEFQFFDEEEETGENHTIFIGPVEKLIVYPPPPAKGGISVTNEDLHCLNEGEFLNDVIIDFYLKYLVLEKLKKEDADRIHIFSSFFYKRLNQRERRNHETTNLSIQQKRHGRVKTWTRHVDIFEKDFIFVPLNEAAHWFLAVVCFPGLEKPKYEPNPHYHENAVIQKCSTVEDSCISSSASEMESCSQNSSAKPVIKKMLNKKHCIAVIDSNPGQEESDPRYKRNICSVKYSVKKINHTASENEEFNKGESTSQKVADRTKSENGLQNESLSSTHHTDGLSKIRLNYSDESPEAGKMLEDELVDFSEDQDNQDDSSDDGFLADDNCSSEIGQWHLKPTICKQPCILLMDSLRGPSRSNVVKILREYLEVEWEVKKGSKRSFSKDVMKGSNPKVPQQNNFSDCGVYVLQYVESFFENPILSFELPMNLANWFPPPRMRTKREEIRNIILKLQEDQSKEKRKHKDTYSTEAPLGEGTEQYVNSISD
# Format: functional
row,Structure (SMILES),IC50
1,O=C1N=C(NS(=O)(=O)Cc2ccccc2)S/C1=C1\C(=O)Nc2ccccc21,15.7 µM (active)
2,Clc1ccc2nc(-c3ccc(Br)s3)cn2c1,12.3 µM (active)
3,Oc1ccc(N=Nc2c(O)ccc3ccccc23)cc1,13 µM (active)

# Target: T3, Sentrin-specific protease 8 (Homo sapiens, UniProt Q96LD8);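 note: luminescence read-out of SENP8 inhibition, dose-response confirmation following an ultra-high-throughput screen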
# T3 sequence (Q96LD8 whole entry): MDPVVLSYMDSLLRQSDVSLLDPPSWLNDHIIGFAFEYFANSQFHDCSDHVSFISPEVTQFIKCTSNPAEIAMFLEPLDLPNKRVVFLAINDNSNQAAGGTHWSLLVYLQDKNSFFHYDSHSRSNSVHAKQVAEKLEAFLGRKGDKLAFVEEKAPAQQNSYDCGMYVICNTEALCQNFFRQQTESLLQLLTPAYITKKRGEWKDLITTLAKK
# Format: functional
row,Structure (SMILES),IC50
1,O=C1N=C(NS(=O)(=O)Cc2ccccc2)S/C1=C1\C(=O)Nc2ccccc21,24.5 µM (active)
2,Clc1ccc2nc(-c3ccc(Br)s3)cn2c1,16.5 µM (active)
3,Oc1ccc(N=Nc2c(O)ccc3ccccc23)cc1,8.8 µM (active)

# Target: T4, Protein RecA (Mycobacterium tuberculosis, UniProt P9WHJ3)
# T4 sequence (P9WHJ3 whole entry): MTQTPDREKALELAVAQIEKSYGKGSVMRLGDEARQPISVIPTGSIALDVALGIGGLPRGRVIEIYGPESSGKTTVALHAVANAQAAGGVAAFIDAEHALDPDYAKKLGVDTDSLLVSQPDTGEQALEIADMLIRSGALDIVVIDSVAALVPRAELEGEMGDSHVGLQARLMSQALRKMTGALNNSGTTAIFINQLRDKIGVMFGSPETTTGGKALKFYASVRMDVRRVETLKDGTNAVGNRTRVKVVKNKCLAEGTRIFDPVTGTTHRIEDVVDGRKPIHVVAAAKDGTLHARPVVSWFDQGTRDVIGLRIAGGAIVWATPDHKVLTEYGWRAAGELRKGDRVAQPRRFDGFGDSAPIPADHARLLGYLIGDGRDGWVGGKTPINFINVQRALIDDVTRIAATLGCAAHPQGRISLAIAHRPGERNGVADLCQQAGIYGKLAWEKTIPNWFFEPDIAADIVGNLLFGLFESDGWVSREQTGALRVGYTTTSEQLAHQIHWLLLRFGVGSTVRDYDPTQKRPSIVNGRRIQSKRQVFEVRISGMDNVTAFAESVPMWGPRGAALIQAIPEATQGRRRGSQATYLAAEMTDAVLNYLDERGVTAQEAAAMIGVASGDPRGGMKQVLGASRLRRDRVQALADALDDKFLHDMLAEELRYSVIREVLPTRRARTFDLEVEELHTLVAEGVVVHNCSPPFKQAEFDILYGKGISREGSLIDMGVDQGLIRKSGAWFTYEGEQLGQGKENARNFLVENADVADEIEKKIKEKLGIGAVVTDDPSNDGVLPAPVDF
# Assay: Fluorescence Cell-Free Homogeneous Dose Retest to Identify Inhibitors of RecA-Intein Splicing Activity. [Related pubchem assays (depositor defined):AID2097, AID2223, AID489010, AID492950]
# Format: functional
row,Structure (SMILES),EC50
1,O=C(O)C1Nc2c(O)cc(Cl)c([N+](=O)[O-])c2C2C=CCC12 (configuration not stated),11.5 µM (active)
2,CC(=O)NC1C(=O)N(CCN2CCOCC2)c2ccc(F)cc21 (configuration not stated),12.1 µM (active)
3,O=C1C=C(N2CCCCC2)c2ccccc2C1=O,1.25 µM (active)
